Source: patent publication US7812022B2 (GlaxoSmithKline LLC, priority 2004, dated 2010)
pIC50: −log10 of the molar value.

Key:
[1] = biological target: T1, ErbB2 or EGFR; assay: ErbB family substrate phosphorylation enzyme assay (HTRF), Method A or Method B; type: biochemical; conditions: Method B: enzyme mix pre-incubated with compound 1 hour at 20° C., started with substrate mix
T1 construct: enzymes purified from a baculovirus expression system; Reagent production was conducted essentially as described in Brignola, P. S., et al, (2002) J. Biol. Chem. 277(2): 1576-1585
Summary of the method: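 Baculovirus-expressed EGFR or ErbB2 (0.8 or 10 nM in enzyme mix) phosphorylates biotinylated Peptide C with 20 µM ATP and 0.8 µM peptide (substrate-mix levels), MnCl2, pH 7.5. Reaction ran 90 min at 20 °C with EDTA stop and HTRF anti-phosphotyrosine read. Method A: enzyme added last; Method B: 1 h enzyme–compound preincubation.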

[2] = tested on: BT474 and HN5 tumor cell lines; assay: Celltiter Glo growth inhibition assay (cellular Method B); type: cell-based; conditions: Homo sapiens, BT-474, 72 h, 3 days, read-out: Activity (Method): growth inhibition IC50 class
Experimental: (§1) Human breast tumor cells (BT474) were cultured in RPMI, (Invitrogen, 22400) containing 10% fetal bovine serum (FBS). Human head and neck tumor cells (HN5) were cultured in low glucose DMEM (Invitrogen, 12320) containing 10% FBS. Human colon tumor cells (Colo205) were cultured in DMEM (Invitrogen, 10564) containing 10% FBS. All cell lines were maintained at 37° C. in a humidified 5% CO2, 95% air incubator. Cells were harvested using trypsin/EDTA, counted using a haemocytometer, and plated in 30 microliters of the appropriate media described above, at the following densities, in a half area, black-walled, 96-well tissue culture plate (Corning 3882): BT474 3,000 cells/well, HN5 500 cells/well and Colo205 cells, 3,000 cells/well. The next day, compounds were diluted in DMEM containing […] gentamicin, from 10 mM stock solutions in DMSO. 30 microliters/well of these dilutions were added to the 30 microliters/well of media currently on the cell plates. Medium containing 0.6% DMSO was added to control wells. The final concentration of DMSO in all wells was 0.3%. Cells were incubated at 37° C., 5% CO2 for 3 days. Cell biomass was estimated using Celltiter Glo (Promega G7571). Briefly, plates were removed from the incubator and allowed to equilibrate to rt for 30 minutes. 60 microliters of Celltiter Glo reagent were added to each well of the treated cells and plates were shaken on an orbital plate shaker for 2 min. Plates were incubated without shaking for 30 more min and read in a luminometer with an integration time of 0.5 seconds per well. Percent inhibition of cell growth was calculated relative to vehicle treated control wells. Concentration of compound that inhibits 50% of vehicle control cell growth (IC50) was interpolated using nonlinear regression (Levenberg-Marquardt) and the equation, y=Vmax*(1−(x/(K+x)))+Y2, where “K” was equal to the IC50.

[3] = tested on: Colo205 tumor cell lines; assay: Celltiter Glo growth inhibition assay (cellular Method B), Colo205; type: cell-based; conditions: Homo sapiens, COLO 205, 72 h, 3 days, read-out: Activity (Method): growth inhibition IC50 class
Experimental: as §1

SMILES | Activity (Method): pIC50 class against ErbB2 or EGFR [1] | pIC50 [2] | pIC50 [3]
O=C(Nc1cccc(-c2nn3ccccc3c2-c2nc(Nc3cccc(F)c3)ncc2F)c1)c1c(F)cccc1F [Example 202, 2,6-difluoro-N-[3-(3-{5-fluoro-2-[(3-fluorophenyl)amino]-4-pyrimidinyl}pyrazolo[1,5-a]pyridin-2-yl)phenyl]benzamide] | ++ (B) (at least one pIC50 measurement greater than 6 against either ErbB2 or EGFR but no measurement greater than pIC50 of 7) | 6.00 to 7.00 | < 6.00
CS(=O)(=O)NCCOc1ccc(Nc2nccc(-c3c(-c4cccc(NC(=O)c5c(F)cccc5F)c4)nn4ccccc34)n2)cc1Cl [Example 163, N-{3-[3-(2-{[3-Chloro-4-({2-[(methylsulfonyl)amino]ethyl}-oxy)phenyl]amino}-4-pyrimidinyl)pyrazolo[1,5-a]pyridin-2-yl]phenyl}-2,6-difluorobenzamide] | +++ (B) (at least one pIC50 measurement of greater than 7 against either ErbB2 or EGFR) | > 7.00 | > 7.00
CN1CCc2ccc(Nc3nccc(-c4c(-c5cccc(NC(=O)c6c(F)cccc6F)c5)nn5cccc(F)c45)n3)cc2C1 [Example 169, 2,6-Difluoro-N-[3-(4-fluoro-3-{2-[(2-methyl-1,2,3,4-tetrahydro-7-isoquinolinyl)amino]-4-pyrimidinyl}pyrazolo[1,5-a]pyridin-2-yl)phenyl]benzamide] | +++ (B) (at least one pIC50 measurement of greater than 7 against either ErbB2 or EGFR) | > 7.00 | < 6.00
